Measured values published in patent US8101774B2, “Ester derivatives and medicinal use thereof” (Japan Tobacco Inc., priority 2004, dated 2012).

Target: T1, Microsomal triglyceride transfer protein (MTP) from human small intestine microsome (Homo sapiens, UniProt P55157)
T1 construct: Human small intestine microsome was dialyzed against 10 mM phosphate buffer; tissue Tissue Transforming Technologies, Inc; host or cells: human small intestine microsome
Assay: Inhibition test of interliposomal triglyceride (TG) transfer activity by MTP
Type: biochemical
Conditions: purified MTP from human small intestine microsome, 37° C., 1.5 hours
Summary of the method: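 DEAE-purified human small intestine MTP (50 μL of 20 μg/mL) incubated 1.5 hours at 37° C with ^14C-triolein donor and unlabelled acceptor SUV liposomes in pH 7.4 Tris buffer with 0.5% BSA. Donor removed on DEAE cellulose; acceptor radioactivity counted, blank-corrected against DMSO control, giving percent inhibition and IC50.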

T1 sequence (P55157 19-894): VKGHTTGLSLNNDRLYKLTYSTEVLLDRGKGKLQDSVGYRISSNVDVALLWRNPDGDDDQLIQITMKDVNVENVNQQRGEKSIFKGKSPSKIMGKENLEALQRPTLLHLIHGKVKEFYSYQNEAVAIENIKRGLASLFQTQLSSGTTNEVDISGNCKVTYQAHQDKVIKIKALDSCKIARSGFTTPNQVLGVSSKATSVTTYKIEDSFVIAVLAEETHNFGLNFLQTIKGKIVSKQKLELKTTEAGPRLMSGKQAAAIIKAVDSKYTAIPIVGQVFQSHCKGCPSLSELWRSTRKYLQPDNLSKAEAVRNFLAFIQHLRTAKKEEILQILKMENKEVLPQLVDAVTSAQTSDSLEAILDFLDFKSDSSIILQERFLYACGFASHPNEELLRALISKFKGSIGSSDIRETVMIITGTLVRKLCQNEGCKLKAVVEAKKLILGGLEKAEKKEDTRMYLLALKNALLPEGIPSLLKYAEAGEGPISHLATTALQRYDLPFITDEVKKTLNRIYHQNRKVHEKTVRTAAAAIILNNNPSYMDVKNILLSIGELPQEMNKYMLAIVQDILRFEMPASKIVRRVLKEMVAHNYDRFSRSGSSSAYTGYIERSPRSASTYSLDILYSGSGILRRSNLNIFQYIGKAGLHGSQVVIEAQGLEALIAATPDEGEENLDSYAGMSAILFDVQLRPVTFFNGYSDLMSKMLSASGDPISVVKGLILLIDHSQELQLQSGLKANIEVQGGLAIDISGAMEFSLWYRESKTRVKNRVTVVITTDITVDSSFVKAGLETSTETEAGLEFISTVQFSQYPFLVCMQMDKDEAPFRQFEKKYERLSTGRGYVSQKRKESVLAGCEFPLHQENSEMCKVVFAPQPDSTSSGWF
T1 sequence (P07237 18-508 partner): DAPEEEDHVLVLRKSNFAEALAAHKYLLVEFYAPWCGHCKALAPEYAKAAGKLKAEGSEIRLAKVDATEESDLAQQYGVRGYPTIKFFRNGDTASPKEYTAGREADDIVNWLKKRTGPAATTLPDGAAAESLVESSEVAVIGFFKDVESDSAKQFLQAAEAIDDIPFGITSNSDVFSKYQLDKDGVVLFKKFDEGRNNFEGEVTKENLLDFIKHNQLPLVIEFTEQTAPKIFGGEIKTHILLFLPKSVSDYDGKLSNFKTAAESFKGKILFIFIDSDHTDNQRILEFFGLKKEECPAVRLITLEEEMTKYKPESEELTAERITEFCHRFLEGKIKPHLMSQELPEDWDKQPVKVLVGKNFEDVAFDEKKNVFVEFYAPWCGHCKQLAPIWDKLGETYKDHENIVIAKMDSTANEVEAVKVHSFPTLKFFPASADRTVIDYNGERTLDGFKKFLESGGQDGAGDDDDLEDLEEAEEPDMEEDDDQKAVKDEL

| IC50 [nM] | Compound |
| --- | --- |
| < 10 | COC(=O)c1cc(C(=O)OC(C)C)cc(C)c1OC(=O)CCCc1ccc(NC(=O)c2ccc(C)nc2-c2ccc(C(F)(F)F)cc2)c(C(=O)N(C)C)c1 [Compound 1-111, 4-[4-(3-dimethylcarbamoyl-4-{[6-methyl-2-(4-trifluoromethylphenyl)pyridine-3-carbonyl]amino}phenyl)butyryloxy]-5-methylisophthalic acid 1-isopropyl ester 3-methyl ester] |
| < 10 | CN(C)C(=O)c1cc(CCCC(=O)Oc2ccc(C(=O)OCCOCc3ccccc3)cc2)ccc1NC(=O)c1ccccc1-c1ccc(C(F)(F)F)cc1 [Compound 1-89, 4-[4-(3-dimethylcarbamoyl-4-{(4′-trifluoromethylbiphenyl-2-carbonyl)amino}phenyl)butyryloxy]benzoic acid 2-benzyloxyethyl ester] |
| < 10 | COc1cc(C(=O)OCC(=O)N(C)C)cc(Cl)c1OC(=O)CCCc1ccc(NC(=O)c2ccc(C)nc2-c2ccc(C(F)(F)F)cc2)c(C(=O)N(C)C)c1 [Compound 1-113, 3-chloro-4-[4-(3-dimethylcarbamoyl-4-{[6-methyl-2-(4-trifluoromethylphenyl)pyridine-3-carbonyl]amino}phenyl)butyryloxy]-5-methoxybenzoic acid dimethylcarbamoylmethyl ester] |
| < 10 | COC(=O)c1cc(C)c(OC(=O)CCCc2ccc(NC(=O)c3ccc(C)nc3-c3ccc(C(F)(F)F)cc3)c(C(=O)N(C)C)c2)c(F)c1 [Compound 1-41, 4-[4-(3-dimethylcarbamoyl-4-{[6-methyl-2-(4-trifluoromethylphenyl)pyridine-3-carbonyl]amino}phenyl)butyryloxy]-3-fluoro-5-methylbenzoic acid methyl ester] |
| < 10 | COC(=O)c1ccc(OC(=O)CCCc2ccc(NC(=O)c3ccccc3-c3ccc(C(F)(F)F)cc3)c(C(=O)N(C)C)c2)c(C(=O)OC)c1 [Compound 1-33, 4-(4-{3-dimethylcarbamoyl-4-[(4′-trifluoromethylbiphenyl-2-carbonyl)amino]phenyl}butyryloxy)isophthalic acid dimethyl ester] |
| < 10 | CC(C)n1nnc(-c2ccc(OC(=O)CCCc3ccc(NC(=O)c4ccccc4-c4ccc(C(F)(F)F)cc4)c(C(=O)N(C)C)c3)cc2)n1 [Compound 1-115, 4-(3-dimethylcarbamoyl-4-{(4′-trifluoromethylbiphenyl-2-carbonyl)amino}phenyl)butyric acid 4-(2-isopropyl-2H-tetrazol-5-yl)phenyl ester] |
| < 10 | COC(=O)c1ccc(-c2nc(C)ccc2C(=O)Nc2ccc(CCCC(=O)Oc3c(Cl)cc(C(=O)OC)cc3OC)cc2C(=O)N(C)C)cc1 [Compound 4-4, 3-chloro-4-[4-(3-dimethylcarbamoyl-4-{[2-(4-methoxycarbonylphenyl)-6-methylpyridine-3-carbonyl]amino}phenyl)butyryloxy]-5-methoxybenzoic acid methyl ester] |
| 100 to 1000 | CN(C)C(=O)c1cc(CC(=O)Oc2ccccc2)ccc1NC(=O)c1ccccc1-c1ccc(C(F)(F)F)cc1 [Compound 1-3, {3-dimethylcarbamoyl-4-[(4′-trifluoromethylbiphenyl-2-carbonyl)amino]phenyl}acetic acid phenyl ester] |
| < 10 | CC(=O)N1CCC(OC(=O)c2ccc(OC(=O)CCCc3ccc(NC(=O)c4ccccc4-c4ccc(C(F)(F)F)cc4)c(C(=O)N(C)C)c3)cc2)CC1 [Compound 1-109, 4-[4-(3-dimethylcarbamoyl-4-{(4′-trifluoromethylbiphenyl-2-carbonyl)amino}phenyl)butyryloxy]benzoic acid 1-acetylpiperidin-4-yl ester] |
| < 10 | COC(=O)COC(=O)c1ccc(OC(=O)CCCc2ccc(NC(=O)c3ccccc3-c3ccc(C(F)(F)F)cc3)c(C(=O)N(C)C)c2)cc1 [Compound 1-86, 4-[4-(3-dimethylcarbamoyl-4-{(4′-trifluoromethylbiphenyl-2-carbonyl)amino}phenyl)butyryloxy]benzoic acid methoxycarbonylmethyl ester] |
| < 10 | COC(=O)c1cc(Cl)c(OC(=O)CCCc2ccc(NC(=O)c3ccc(C)nc3-c3ccc(C(F)(F)F)cc3)c(C(=O)N(C)C)c2)c(C(C)C)c1 [Compound 1-74, 3-chloro-4-[4-(3-dimethylcarbamoyl-4-{[6-methyl-2-(4-trifluoromethylphenyl)pyridine-3-carbonyl]amino}phenyl)butyryloxy]-5-isopropylbenzoic acid methyl ester] |
| < 10 | COC(=O)c1ccc(OC(=O)CCCc2ccc(NC(=O)c3ccc(C)cc3-c3ccc(C(F)(F)F)cc3)c(C(=O)N(C)C)c2)cc1 [Compound 1-9, 4-(4-{3-dimethylcarbamoyl-4-[(5-methyl-4′-trifluoromethylbiphenyl-2-carbonyl)amino]phenyl}butyryloxy) benzoic acid methyl ester] |
| < 10 | CCOC(=O)c1ccc(OC(=O)CCCc2ccc(NC(=O)c3ccccc3-c3ccc(C(F)(F)F)cc3)c(C(=O)N3CCCC3)c2)c(F)c1 [Compound 1-16, 3-fluoro-4-(4-{3-(pyrrolidine-1-carbonyl)-4-[(4′-trifluoromethylbiphenyl-2-carbonyl)amino]phenyl}butyryloxy)benzoic acid ethyl ester] |
| < 10 | COC(=O)c1cc(C)c(OC(=O)CCCc2ccc(NC(=O)c3ccccc3-c3ccc(C(F)(F)F)cc3)c(C(=O)N(C)C)c2)c(Cl)c1 [Compound 1-34, 3-chloro-4-(4-{3-dimethylcarbamoyl-4-[(4′-trifluoromethylbiphenyl-2-carbonyl)amino]phenyl}butyryloxy)-5-methylbenzoic acid methyl ester] |
| < 10 | COC(=O)c1ccc(OC(=O)CCCc2ccc(NC(=O)c3ccccc3-c3ccc(C(F)(F)F)cc3)c(C(=O)N(C)C)c2)c(C(C)C)c1 [Compound 1-68, 4-[4-(3-dimethylcarbamoyl-4-{(4′-trifluoromethylbiphenyl-2-carbonyl)amino}phenyl)butyryloxy]-3-isopropylbenzoic acid methyl ester] |
| < 10 | CN(C)C(=O)c1cc(CCCC(=O)Oc2ccc(C(=O)OC3CCCc4ccccc43)cc2)ccc1NC(=O)c1ccccc1-c1ccc(C(F)(F)F)cc1 (stereo not shown) [Compound 1-108, 4-[4-(3-dimethylcarbamoyl-4-{(4′-trifluoromethylbiphenyl-2-carbonyl)amino}phenyl)butyryloxy]benzoic acid 1,2,3,4-tetrahydronaphthalen-1-yl ester] |
| < 10 | COC(=O)c1cc(C)c(OC(=O)CCCc2ccc(NC(=O)c3ccc(C)nc3-c3ccc(C(F)(F)F)cc3)c(C(=O)N(C)C)c2)c(C(F)(F)F)c1 [Compound 1-45, 4-[4-(3-dimethylcarbamoyl-4-{[6-methyl-2-(4-trifluoromethylphenyl)pyridine-3-carbonyl]amino}phenyl)butyryloxy]-3-methyl-5-trifluoromethylbenzoic acid methyl ester] |
| < 10 | COC(=O)c1ccc(OC(=O)CCCc2ccc(NC(=O)c3ccc(C)nc3-c3ccc(C(F)(F)F)cc3)c(C(=O)N(C)C)c2)c(C(=O)OC)c1 [Compound 1-70, 4-[4-(3-dimethylcarbamoyl-4-{[6-methyl-2-(4-trifluoromethylphenyl)pyridine-3-carbonyl]amino}phenyl)butyryloxy]isophthalic acid dimethyl ester] |
| 10 to 100 | COC(=O)c1ccc(OC(=O)CCCc2ccc(NC(=O)c3ccccc3-c3ccc(C(F)(F)F)cc3)c(C(=O)N(C)C)c2)c(C(F)(F)F)c1 [Compound 1-20, 4-(4-{3-dimethylcarbamoyl-4-[(4′-trifluoromethylbiphenyl-2-carbonyl)amino]phenyl}butyryloxy)-3-trifluoromethylbenzoic acid methyl ester] |
| 10 to 100 | CC(C)OC(=O)c1ccc(OC(=O)CCCc2ccc(NC(=O)c3cccnc3-c3ccc(C(F)(F)F)cc3)c(C(=O)N(C)C)c2)cc1 [Compound 1-31, 4-[4-(3-dimethylcarbamoyl-4-{[2-(4-trifluoromethylphenyl)pyridine-3-carbonyl]amino}phenyl)butyryloxy]benzoic acid isopropyl ester] |
| < 10 | CN(C)C(=O)c1cc(CCCC(=O)Oc2ccc(C(=O)OCCCO)cc2)ccc1NC(=O)c1ccccc1-c1ccc(C(F)(F)F)cc1 [Compound 1-92, 4-[4-(3-dimethylcarbamoyl-4-{(4′-trifluoromethylbiphenyl-2-carbonyl)amino}phenyl)butyryloxy]benzoic acid 3-hydroxypropyl ester] |
| < 10 | CCCOC(=O)c1cc(Cl)c(OC(=O)CCCc2ccc(NC(=O)c3ccc(C)nc3-c3ccc(C(F)(F)F)cc3)c(C(=O)N(C)C)c2)c(OC)c1 [Compound 1-75, 3-chloro-4-[4-(3-dimethylcarbamoyl-4-{[6-methyl-2-(4-trifluoromethylphenyl)pyridine-3-carbonyl]amino}phenyl)butyryloxy]-5-methoxybenzoic acid propyl ester] |
| < 10 | CCC(=O)c1ccc(OC(=O)CCCc2ccc(NC(=O)c3ccccc3-c3ccc(C(F)(F)F)cc3)c(C(=O)N(C)C)c2)cc1 [Compound 1-88, 4-(3-dimethylcarbamoyl-4-{(4′-trifluoromethylbiphenyl-2-carbonyl)amino}phenyl)butyric acid 4-propionylphenyl ester] |
| < 10 | COC(=O)c1ccc(OC(=O)CCCc2ccc(NC(=O)c3ccccc3-c3ccc(C(F)(F)F)cc3)c(C(=O)N(C)C)c2)cc1Cl [Compound 1-18, 2-chloro-4-(4-{3-dimethylcarbamoyl-4-[(4′-trifluoromethylbiphenyl-2-carbonyl)amino]phenyl}butyryloxy)benzoic acid methyl ester] |

| Compound | IC50 [nM] |
| --- | --- |
| COC(=O)c1cc(C)c(OC(=O)CCCc2ccc(NC(=O)c3ccc(C)nc3-c3ccc(C(F)(F)F)cc3)c(C(=O)N(C)C)c2)c(Cl)c1 [Compound 1-35, 3-chloro-4-[4-(3-dimethylcarbamoyl-4-{[6-methyl-2-(4-trifluoromethylphenyl)pyridine-3-carbonyl]amino}phenyl)butyryloxy]-5-methylbenzoic acid methyl ester] | < 10 |
